Test results taken from patent US20140005163A1 (NOVARTIS AG, priority 2010, published 2014).

Tests used:
PI3K delta = target: T1, PI3K delta (Homo sapiens, UniProt O00329); assay: PI3K delta kinase assay (Kinase-Glo luminescence); type: biochemical
T1 construct: for the full-length p110-d subunit are generated and fused by overlapping PCR; p85(iSH2) fusion partner (see partner chain) (N); His tag (C); made in house; host or cells: baculovirus; Tn5 (Trichoplusia ni) or TiniPro insect cells
How it was run: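 Lipid kinase activity of a His-tagged p110δ full-length/p85 iSH2 fusion (10 nM) toward bovine liver phosphatidylinositol (10 μg/mL) at 1 μM ATP, pH 7.5, 60 min, room temperature. ATP consumption is quantified by luciferase-based luminescence. Four-parameter logistic fitting gives IC50.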

[1] = Cellular CaCo2 permeability assay from apical to basal (A-B); type: in vitro ADME; details: human, Caco-2, read-out: Pe A-B (permeability)
From the text: The permeability in 10^−6 cm/s of compounds of formula (I) have been confirmed for selected example using a cellular CaCo2 permeability assay from apical to basal (A-B): […]

PI3K gamma = target: T2, PI3K gamma (Homo sapiens, UniProt P48736); assay: PI3K gamma kinase assay (Kinase-Glo luminescence); type: biochemical
T2 construct: His tag (C); made in house; host or cells: baculovirus (pVL1393); Tn5 or TiniPro insect cells; construct from Roger Williams lab, MRC LMB
T2 sequence (P48736 144-1102 limits assumed): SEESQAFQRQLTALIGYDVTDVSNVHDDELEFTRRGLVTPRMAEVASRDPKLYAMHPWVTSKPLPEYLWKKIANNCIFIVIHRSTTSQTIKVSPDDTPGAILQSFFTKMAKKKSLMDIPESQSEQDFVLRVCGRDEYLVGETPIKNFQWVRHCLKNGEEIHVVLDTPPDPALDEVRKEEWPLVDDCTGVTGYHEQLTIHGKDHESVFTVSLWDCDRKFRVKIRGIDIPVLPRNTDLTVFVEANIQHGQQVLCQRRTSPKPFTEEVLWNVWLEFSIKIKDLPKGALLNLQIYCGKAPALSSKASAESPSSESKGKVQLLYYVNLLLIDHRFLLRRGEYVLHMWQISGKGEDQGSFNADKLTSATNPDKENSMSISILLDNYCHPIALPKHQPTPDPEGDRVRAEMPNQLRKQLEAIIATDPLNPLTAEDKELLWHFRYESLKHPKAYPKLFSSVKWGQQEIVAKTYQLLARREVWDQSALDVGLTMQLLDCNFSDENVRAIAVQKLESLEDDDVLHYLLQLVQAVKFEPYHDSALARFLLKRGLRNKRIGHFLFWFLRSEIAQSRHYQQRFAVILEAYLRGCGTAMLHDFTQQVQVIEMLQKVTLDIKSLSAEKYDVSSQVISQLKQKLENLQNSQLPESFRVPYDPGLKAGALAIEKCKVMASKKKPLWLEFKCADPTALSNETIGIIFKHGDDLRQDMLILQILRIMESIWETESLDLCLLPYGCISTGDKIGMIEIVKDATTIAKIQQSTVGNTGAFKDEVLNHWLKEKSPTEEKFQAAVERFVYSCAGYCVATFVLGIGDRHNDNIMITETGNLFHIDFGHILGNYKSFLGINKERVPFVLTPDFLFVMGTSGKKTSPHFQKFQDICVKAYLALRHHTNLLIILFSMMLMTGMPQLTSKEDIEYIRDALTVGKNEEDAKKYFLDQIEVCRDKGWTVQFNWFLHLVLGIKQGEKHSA
How it was run: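 Luminescent ATP-depletion (Kinase-Glo) assay with 150 nM PI3Kγ, 1 μM ATP and 10 μg/mL phosphatidylinositol in 10 mM Tris-HCl pH 7.5, 3 mM MgCl2, 50 mM NaCl, 0.05% CHAPS, 1 mM DTT; 120 min at room temperature. Eight-point dilutions; IC50 by four-parameter logistic fit.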

PI3K beta = target: T3, PI3K beta (Homo sapiens, UniProt P42338); assay: PI3K beta kinase assay (Kinase-Glo luminescence); type: biochemical
T3 construct: for the full-length p110-b subunit are generated and fused by overlapping PCR; p85(iSH2) fusion partner (see partner chain) (N); His tag (C); made in house; host or cells: baculovirus; Tn5 (Trichoplusia ni) or TiniPro insect cells
T3 sequence (P42338 with tags, fused parts or gaps limits assumed): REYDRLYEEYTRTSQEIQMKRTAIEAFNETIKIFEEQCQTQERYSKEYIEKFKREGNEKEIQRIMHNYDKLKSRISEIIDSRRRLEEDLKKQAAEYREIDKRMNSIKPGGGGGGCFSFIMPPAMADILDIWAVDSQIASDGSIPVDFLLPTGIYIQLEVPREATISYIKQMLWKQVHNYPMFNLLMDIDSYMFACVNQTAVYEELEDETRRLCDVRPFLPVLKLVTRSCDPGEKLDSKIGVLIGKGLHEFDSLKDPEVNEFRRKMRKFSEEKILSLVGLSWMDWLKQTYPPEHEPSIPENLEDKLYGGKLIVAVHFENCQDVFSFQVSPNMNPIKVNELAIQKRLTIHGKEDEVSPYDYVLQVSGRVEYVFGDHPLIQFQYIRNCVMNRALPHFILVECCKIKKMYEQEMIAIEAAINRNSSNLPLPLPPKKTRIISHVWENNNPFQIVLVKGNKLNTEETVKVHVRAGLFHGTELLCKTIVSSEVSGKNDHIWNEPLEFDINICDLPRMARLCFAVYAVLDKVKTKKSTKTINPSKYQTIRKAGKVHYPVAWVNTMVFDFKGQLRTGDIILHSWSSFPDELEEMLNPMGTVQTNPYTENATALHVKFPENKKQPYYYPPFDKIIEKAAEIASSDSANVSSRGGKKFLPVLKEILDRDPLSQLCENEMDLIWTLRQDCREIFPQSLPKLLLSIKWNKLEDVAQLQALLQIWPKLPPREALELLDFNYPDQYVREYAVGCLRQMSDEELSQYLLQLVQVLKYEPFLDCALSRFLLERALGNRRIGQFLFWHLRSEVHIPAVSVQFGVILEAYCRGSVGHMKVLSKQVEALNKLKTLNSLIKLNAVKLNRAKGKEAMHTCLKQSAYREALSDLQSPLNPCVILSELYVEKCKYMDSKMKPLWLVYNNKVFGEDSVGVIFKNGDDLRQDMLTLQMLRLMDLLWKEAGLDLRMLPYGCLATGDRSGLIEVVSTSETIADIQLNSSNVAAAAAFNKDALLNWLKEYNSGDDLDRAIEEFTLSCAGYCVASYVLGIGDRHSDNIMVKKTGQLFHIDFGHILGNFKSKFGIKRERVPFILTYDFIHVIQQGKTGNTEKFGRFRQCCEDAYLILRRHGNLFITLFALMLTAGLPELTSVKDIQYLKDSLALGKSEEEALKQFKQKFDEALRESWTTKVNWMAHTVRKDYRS
How it was run: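 p110β full-length/p85 iSH2 construct (BV-949), 25 nM, with 1 μM ATP and 10 μg/mL phosphatidylinositol in 10 mM Tris pH 7.5, 3 mM MgCl2, 50 mM NaCl, 0.05% CHAPS, 1 mM DTT. 60 min at room temperature; ATP remaining read by Kinase-Glo luminescence. IC50 from 8-point four-parameter logistic fit.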

[2] = test system: PKB Ser473 phosphorylation in Rat1-myr-HA-p110 beta cells; assay: Reverse protein array assay, PKB Ser473 phosphorylation in Rat1-myr-p110 beta cells; type: cell-based; details: 0.5 h, pAkt Ser473, 30 minutes incubation, read-out: p-PKB IC50
How it was run: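 Lysates were arrayed at four dilutions, and phospho-PKB Ser473 was quantified by relative fluorescence signal. They came from Rat1-myr-HA-p110 alpha, beta or delta cells exposed for 30 min at 37 °C to an 8-point compound series with 0.2% DMSO constant.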

T1 sequence (O00329 with tags, fused parts or gaps limits assumed): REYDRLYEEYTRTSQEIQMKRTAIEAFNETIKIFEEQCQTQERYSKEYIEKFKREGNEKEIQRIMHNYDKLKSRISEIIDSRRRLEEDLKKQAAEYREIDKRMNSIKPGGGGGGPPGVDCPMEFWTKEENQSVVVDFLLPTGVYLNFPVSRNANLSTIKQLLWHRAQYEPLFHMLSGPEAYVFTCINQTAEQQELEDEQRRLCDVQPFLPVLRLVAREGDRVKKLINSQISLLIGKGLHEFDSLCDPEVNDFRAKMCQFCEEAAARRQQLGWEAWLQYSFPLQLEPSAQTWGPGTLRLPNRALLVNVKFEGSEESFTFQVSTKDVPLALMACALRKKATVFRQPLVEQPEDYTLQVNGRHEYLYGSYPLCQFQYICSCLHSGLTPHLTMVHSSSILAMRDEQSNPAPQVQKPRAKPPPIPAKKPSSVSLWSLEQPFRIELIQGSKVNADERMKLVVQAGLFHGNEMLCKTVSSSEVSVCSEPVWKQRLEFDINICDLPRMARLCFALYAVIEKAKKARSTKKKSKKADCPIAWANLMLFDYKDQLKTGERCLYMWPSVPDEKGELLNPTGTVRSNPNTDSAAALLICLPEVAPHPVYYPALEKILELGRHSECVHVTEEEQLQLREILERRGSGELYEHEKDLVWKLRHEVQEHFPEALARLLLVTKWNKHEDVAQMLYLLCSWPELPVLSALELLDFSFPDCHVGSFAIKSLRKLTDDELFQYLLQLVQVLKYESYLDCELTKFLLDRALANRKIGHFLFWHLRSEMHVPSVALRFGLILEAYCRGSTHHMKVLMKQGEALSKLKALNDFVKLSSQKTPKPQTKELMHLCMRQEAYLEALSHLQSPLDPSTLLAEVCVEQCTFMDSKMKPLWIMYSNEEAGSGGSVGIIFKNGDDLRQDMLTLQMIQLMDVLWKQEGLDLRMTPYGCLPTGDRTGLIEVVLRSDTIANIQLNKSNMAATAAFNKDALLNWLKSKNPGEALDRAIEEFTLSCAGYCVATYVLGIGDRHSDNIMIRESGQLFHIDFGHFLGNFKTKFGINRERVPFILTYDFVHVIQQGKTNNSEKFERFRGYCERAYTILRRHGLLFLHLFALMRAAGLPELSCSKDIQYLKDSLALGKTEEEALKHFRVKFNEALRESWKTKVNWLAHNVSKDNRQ

Row | SMILES | IC50 (PI3K delta) | Papp A→B [1] | IC50 (PI3K gamma) | IC50 (PI3K beta) | IC50 [2]
1 | CCn1cc(-n2c(=O)n(C)c3cnc4ccc(-c5ccc(OC)nc5)cc4c32)c(C)n1 [Example 2.7, 1-(1-Ethyl-3-methyl-1H-pyrazol-4-yl)-8-(6-methoxy-pyridin-3-yl)-3-methyl-1,3-dihydro-imidazo[4,5-c]quinolin-2-one] | 19 nM | 21.5 ×10⁻⁶ cm/s | 217 nM | 91 nM | 38 nM
2 | CCOc1ccc(-c2ccc3ncc4c(c3c2)n(-c2c(C)nn(C)c2C)c(=O)n4C)cn1 [Example 3.3, 8-(6-Ethoxy-pyridin-3-yl)-3-methyl-1-(1,3,5-trimethyl-1H-pyrazol-4-yl)-1,3-dihydro-imidazo[4,5-c]quinolin-2-one] | 148 nM | 21 ×10⁻⁶ cm/s | 309 nM | 401 nM | 548 nM
3 | CCOc1ccc(-c2ccc3ncc4c(c3c2)n(-c2cn(C(C)C)nc2C)c(=O)n4C)cn1 [Example 3.7, 8-(6-Ethoxy-pyridin-3-yl)-1-(1-isopropyl-3-methyl-1H-pyrazol-4-yl)-3-methyl-1,3-dihydro-imidazo[4,5-c]quinolin-2-one] | 43 nM | 27.8 ×10⁻⁶ cm/s | 303 nM | 537 nM | 51 nM
4 | CCOc1ccc(-c2ccc3ncc4c(c3c2)n(-c2cn(CC(=O)N(C)C)nc2C)c(=O)n4C)cn1 [Example 3.9, 2-{4-[8-(6-Ethoxy-pyridin-3-yl)-3-methyl-2-oxo-2,3-dihydro-imidazo[4,5-c]quinolin-1-yl]-3-methyl-pyrazol-1-yl}-N,N-dimethyl-acetamide] | 112 nM | 14.8 ×10⁻⁶ cm/s |  |  | 19 nM
5 | CCNc1cc(-c2ccc3ncc4c(c3c2)n(-c2cn(C)nc2Cl)c(=O)n4C)cnc1C [Example 87.2, 1-(3-Chloro-1-methyl-1H-pyrazol-4-yl)-8-(5-ethylamino-6-methyl-pyridin-3-yl)-3-methyl-1,3-dihydro-imidazo[4,5-c]quinolin-2-one] | 19 nM | 29.9 ×10⁻⁶ cm/s |  | 22 nM | < 5 nM
6 | CNC(=O)c1cc(-c2ccc3ncc4c(c3c2)n(-c2cn(C)nc2C)c(=O)n4C)cnc1OC [Example 125.1, 5-[1-(1,3-Dimethyl-1H-pyrazol-4-yl)-3-methyl-2-oxo-2,3-dihydro-1H-imidazo[4,5-c]quinolin-8-yl]-2-methoxy-N-methyl-nicotinamide] | 26 nM |  | 363 nM | 61 nM | 98 nM
7 | CCNc1cc(-c2ccc3ncc4c(c3c2)n(-c2cn(CC)nc2C)c(=O)n4C)cnc1CO [Example 155.2, 8-(5-Ethylamino-6-hydroxymethyl-pyridin-3-yl)-1-(1-ethyl-3-methyl-1H-pyrazol-4-yl)-3-methyl-1,3-dihydro-imidazo[4,5-c]quinolin-2-one] | 22 nM | 10.9 ×10⁻⁶ cm/s |  | 17 nM | 7 nM
8 | Cc1nn(C)cc1-n1c(=O)n(C)c2cnc3ccc(-c4cncc(N5CCOCC5)c4)cc3c21 [Example 175.1, 1-(1,3-Dimethyl-1H-pyrazol-4-yl)-3-methyl-8-(5-morpholin-4-yl-pyridin-3-yl)-1,3-dihydro-imidazo[4,5-c]quinolin-2-one] | 70 nM | 7.8 ×10⁻⁶ cm/s |  | 180 nM | 37 nM
9 | Cc1nn(C)cc1-n1c(=O)n(C)c2cnc3ccc(-c4cncc(N5CCC5)c4)cc3c21 [Example 179, 8-(5-Azetidin-1-yl-pyridin-3-yl)-1-(1,3-dimethyl-1H-pyrazol-4-yl)-3-methyl-1,3-dihydro-imidazo[4,5-c]quinolin-2-one] | 87 nM | 16 ×10⁻⁶ cm/s |  | 130 nM | 21 nM

Molecules with a lower IC50 (PI3K delta), results first:

Row | IC50 (PI3K delta) | Papp A→B [1] | IC50 (PI3K gamma) | IC50 (PI3K beta) | IC50 [2] | SMILES
10 | 11 nM | 31.6 ×10⁻⁶ cm/s | 157 nM | 43 nM | 22 nM | CCn1cc(-n2c(=O)n(C)c3cnc4ccc(-c5ccc(OC)c(OC)c5)cc4c32)c(C)n1 [Example 1.6, 8-(3,4-Dimethoxy-phenyl)-1-(1-ethyl-3-methyl-1H-pyrazol-4-yl)-3-methyl-1,3-dihydro-imidazo[4,5-c]quinolin-2-one]
11 | 10 nM | 38.4 ×10⁻⁶ cm/s | 390 nM | 86 nM | 18 nM | COc1ccc(-c2ccc3ncc4c(c3c2)n(-c2cn(C)nc2C)c(=O)n4C)cn1 [Example 2.5, 1-(1,3-Dimethyl-1H-pyrazol-4-yl)-8-(6-methoxy-pyridin-3-yl)-3-methyl-1,3-dihydro-imidazo[4,5-c]quinolin-2-one]
12 | 17 nM | 16.1 ×10⁻⁶ cm/s | 292 nM | 213 nM | 17 nM | Cc1nn(C)cc1-n1c(=O)n(C)c2cnc3ccc(-c4ccc(N(C)C)nc4)cc3c21 [Example 4.5, 8-(6-Dimethylamino-pyridin-3-yl)-1-(1,3-dimethyl-1H-pyrazol-4-yl)-3-methyl-1,3-dihydro-imidazo[4,5-c]quinolin-2-one]
13 | 16 nM |  | 236 nM | 206 nM | 18 nM | Cc1nn(C)cc1-n1c(=O)n(C)c2cnc3ccc(-c4cnc5c(ccn5C)c4)cc3c21 [Example 116, 1-(1,3-Dimethyl-1H-pyrazol-4-yl)-3-methyl-8-(1-methyl-1H-pyrrolo[2,3-b]pyridin-5-yl)-1,3-dihydro-imidazo[4,5-c]quinolin-2-one]
14 | 9 nM |  | 121 nM | 44 nM | 9 nM | COc1ncc(-c2ccc3ncc4c(c3c2)n(-c2cn(C)nc2C)c(=O)n4C)cc1N [Example 127, 8-(5-Amino-6-methoxy-pyridin-3-yl)-1-(1,3-dimethyl-1H-pyrazol-4-yl)-3-methyl-1,3-dihydro-imidazo[4,5-c]quinolin-2-one]
